From US12599592B2, “Therapeutic small molecules for treatment of pulmonary hypertension” (UNIVERSITY OF PITTSBURGH—OF THE COMMONWEALTH SYSTEM OF …, priority 2020, dated 2026)

Columns and labels:
C43 genes ISCU and mTOR = test: RT-qPCR of Cluster 43 genes in PASMCs; type: cell-based, human; conditions: BRD2889 5 uM
Excerpt: Cell culture: Primary human pulmonary artery endothelial cells (PAECs) and human pulmonary artery smooth muscle cells (PASMCs) were purchased from Lonza (302-05A, CC-2581). Of note, the same two male donors were the source of all PAECs in the experiments shown. Two additional male donors were the source for all PASMCs in the experiments shown. Cells from these and any donors were characterized by flow cytometry for consistent expression of cell surface markers and by RNA (RT-qPCR) analysis of endothelial and smooth muscle gene expression. PAECs were cultured in EGM-2 media (CC-3121) along with supplements (CC-4133), and PASMCs were cultured in SmGM-2 culture media (Lonza, CC-3182) at 5% CO2 in a humidified incubator.
(§1) RT-qPCR analysis: Cells were lysis in 1 ml of QiaZol reagent (Qiagen). Total RNA content was extracted using the RNeasy kit (Qiagen), according to the manufacturer's instructions. Total RNA concentration was determined using a BioTek Synergy multimode plate reader. Messenger RNAs were reverse transcribed to generate cDNA using the Multiscript RT kit (Thermo Fisher Scientific). cDNA for specific gene targets was amplified and quantified via fluorescently-labeled Taqman primer sets and Taqman fast advanced master mix (Thermo Fisher Scientific) using an Applied Biosystems QuantStudio 6 Flex Real-Time PCR System.

ISCU = test: Immunoblot of ISCU and GSTP1 in PASMCs; type: cell-based, human; conditions: BRD2889 1 uM
Procedure: In IL-6/sIL-6R+hypoxia experiments, a human recombinant IL-6/IL-6R alpha protein chimera (25 ng/ml, Millipore) was administered at 70-80% confluency for 48 h in complete media along with vehicle control (DMSO, Sigma-41639). BRD2889 (1 uM) vs. vehicle control were added, as indicated, and placed into a hypoxia chamber for 24 h. The hypoxia chamber (modular incubator chamber) was obtained from Billups-Rothenberg Inc. (Del Mar, Calif) and placed in regulated CO2 incubator at 37° C.
Immunoblot and densitometry: Cells were lysed in RIPA buffer (Sigma) along with 1× protease inhibitor cocktail (Sigma). Protein lysate was resolved by gradient 4%-15% SDS-PAGE gels and transferred onto a 0.2 μm PVDF membrane (Bio-Rad). Membranes were blocked in 5% non-fat milk in 1×PBST buffer for one hour at room temperature. Later, they were incubated in the presence of the primary antibody overnight at 4° C. and then appropriate HRP-conjugated secondary antibodies (Life Technologies). The following antibodies were used: human LGALS8 (AF1305, RnD Systems), mouse/rat Lgals8 (ab69631, Abcam), pSTAT1 (ab29045, Abcam) and STAT1 (ab47425, Abcam), GSTP1 (ab153949, Abcam), ISCU (14812-1-AP, Prointech), Glutathione (ab19534, Abcam), HIF2A (NB100-122, Novous), α-Tubulin (CP06, Millipore sigma), and ACTB (sc-47778, Santa Cruz). […] The images were later quantified using AlphaEaseFC software (Alpha Innotech).

hypoxic IL-6 Tg mice = test: Hypoxic IL-6 transgenic pulmonary arterial hypertension mouse model; type: in vivo, IL-6 transgenic C57BL/6 mice
Procedure: (§2) Following euthanasia, right ventricle/[left ventricle+septum]
Pulmonary-specific IL-6 transgenic mice (C57BL/6 background) were described previously (Steiner M K et al. Circ Res. 2009, 104, 236-244, 228p following 244). These mice were bred in house, and 12 week old male transgenic mice vs. control littermates were compared. Mice were injected i.p. every 3 days with vehicle control (2.5% DMSO) vs. BRD2889 (5 mg/kg vs. 10 mg/kg), followed by exposure to normobaric hypoxia (10% O2; OxyCycler chamber, Biospherix Ltd, Redfield, NY) for 14 days, as described (Steiner M K et al. Circ Res. 2009, 104, 236-244, 228p following 244).
Rodent echocardiography: Echocardiography was performed using a 15-45 MHz transthoracic transducer and a Visual Sonics Vevo 3100 system (Fujifilm). Inhaled isoflurane anesthesia was used at 2% in 100% O2 during positioning and hair removal and then decreased to isoflurane 0.8% during imaging.

[1] = test system: C43 genes (ISCU, mTOR); EDN1, VCAM1, ICAM1; test: RT-qPCR of Cluster 43 and proinflammatory genes in PAECs; type: cell-based, human
Procedure: In IL-6/sIL-6R+hypoxia experiments, a human recombinant IL-6/IL-6R alpha protein chimera (25 ng/ml, Millipore) was administered at 70-80% confluency for 48 h in complete media along with vehicle control (DMSO, Sigma-41639). […] The hypoxia chamber (modular incubator chamber) was obtained from Billups-Rothenberg Inc. (Del Mar, Calif) and placed in regulated CO2 incubator at 37° C.
as §1

[2] = test system: monocrotaline-exposed pulmonary arterial hypertension rats; test: Monocrotaline (MCT) pulmonary arterial hypertension rat model; conditions: BRD2889 5 mg/kg i.p. every 5 days, Days 12-26 post-MCT
Procedure: as §2
Measurement of GST activity: The GST activity from lung tissue and PAECs was assayed using GST assay kit (Cayman, MI, USA) per the manufacturer's instructions.

glutathionylated ISCU = test: ISCU glutathionylation by immunoprecipitation and immunoblot in PAECs; type: cell-based, human; conditions: hypoxic PAECs, BRD2889 1 mM, 24 h
Procedure: Protein stability assay: The proteasome inhibitor MG132 (M7449, Sigma) was stored at −20° C. at a concentration of 10 mM diluted in dimethyl sulfoxide (DMSO). PAECs were exposed to MG132 ([…]) vs. DMSO vehicle control for 2 hr under hypoxia, prior to harvesting of cellular lysate for immunoblotting.
Immunoblot and densitometry: Cells were lysed in RIPA buffer (Sigma) along with 1× protease inhibitor cocktail (Sigma). Protein lysate was resolved by gradient 4%-15% SDS-PAGE gels and transferred onto a 0.2 μm PVDF membrane (Bio-Rad). Membranes were blocked in 5% non-fat milk in 1×PBST buffer for one hour at room temperature. Later, they were incubated in the presence of the primary antibody overnight at 4° C. and then appropriate HRP-conjugated secondary antibodies (Life Technologies). […] The images were later quantified using AlphaEaseFC software (Alpha Innotech).
Immunoprecipitation: PAECs were transfected with the indicated combinations of siRNAs by Lipofectamine 2000 (Thermo Fisher Scientific) according to the manufacturer's instructions and/or treated with BRD2889 ([…], 24 h). […] After extensive washing, the immunoprecipitated proteins were analyzed by immunoblotting with the indicated antibodies.

[3] = BRD2889 10 mg/kg vs vehicle, 10 days of treatment
[4] = BRD2889 5 and 10 mg/kg IP every three days

## COc1ccc(C#CC2CCCN(C(=O)/C=C/c3cc(OC)c(OC)c(OC)c3)C2=O)cc1 (centres unmarked) [BRD2889]
C43 genes ISCU and mTOR
  hypoxia-induced reduction in ISCU transcript: unaffected
C43 genes ISCU and mTOR; hypoxia
  mTOR transcript: no change
ISCU; IL-6/R + hypoxia
  GSTP1 protein expression: did not affect
ISCU; IL-6/sIL-6R + hypoxia
  ISCU protein: failed to rescue
Hypoxic IL-6 Tg mice; BRD2889 5 mg/kg (low) and 10 mg/kg (high) IP every three days, 14 days hypoxia
  lung total GST enzyme activity: dose-dependent reduction
Hypoxic IL-6 Tg mice; [3]
  heart rate: No differences
  left ventricular function (fractional shortening, ejection fraction, PW thickness): No differences
Hypoxic IL-6 Tg mice; [4]
  Fulton index: dose-dependent reduction
  ISCU in arterioles, particularly CD31+ endothelium (in situ staining): rescued
  RVSP: dose-dependent reduction
  arteriolar muscularization: reduced
  cleaved caspase-3 (CC-3) in whole vessels: decreased
[1]; IL-6/sIL-6R + hypoxia
  inflammatory gene transcripts (EDN1, VCAM1, ICAM1): normalized this upregulation
[1]; hypoxia 48 hrs, BRD2889 5 uM
  C43 genes MID2, BANP, AGTRAP transcripts: unaffected in hypoxia
  ISCU transcript (RT-qPCR): fully reversing the hypoxic decrease
  mTOR transcript (RT-qPCR): partially reversing the decrease
[2]
  Fulton index (RV/LV+S): reduced
  RVSP: reduced
  arteriolar muscularization: reduced
  cleaved caspase-3 (CC-3): decreased
  endothelial ISCU: increased
  lung GST activity: decreased
Glutathionylated ISCU
  ISCU glutathionylation (α-GSH immunoblot after α-ISCU pulldown): converse reduction of glutathionylation
